Laboratory results taken from PubChem BioAssay AID1259407 (Chemical Carcinogenesis Research Information System (CCRIS), 2018).
The source made the active and inactive calls. No rule for the calls is given here.

Test system: CCRIS mutagenicity, Ames/micronucleus/aberration tests
Test: CCRIS mutagenicity studies
[1] = Test System: AMES SALMONELLA TYPHIMURIUM, Strain/Indicator: TA98, Metabolic Activation: NONE, Method: STANDARD PLATE
[2] = Test System: AMES SALMONELLA TYPHIMURIUM, Strain/Indicator: TA100, Metabolic Activation: NONE, Method: STANDARD PLATE
[3] = Test System: AMES SALMONELLA TYPHIMURIUM, Strain/Indicator: TA100, Metabolic Activation: RAT, LIVER, S-9, AROCLOR 1254, Method: STANDARD PLATE
[4] = Test System: AMES SALMONELLA TYPHIMURIUM, Strain/Indicator: TA1535, Metabolic Activation: NONE, Method: STANDARD PLATE
[5] = Test System: AMES SALMONELLA TYPHIMURIUM, Strain/Indicator: TA1537, Metabolic Activation: NONE, Method: STANDARD PLATE
[6] = Test System: AMES SALMONELLA TYPHIMURIUM, Strain/Indicator: TA1537, Metabolic Activation: RAT, LIVER, S-9, AROCLOR 1254, Method: STANDARD PLATE
[7] = Test System: AMES SALMONELLA TYPHIMURIUM, Strain/Indicator: TA1538, Metabolic Activation: NONE, Method: STANDARD PLATE
[8] = Test System: AMES SALMONELLA TYPHIMURIUM, Strain/Indicator: TA1538, Metabolic Activation: RAT, LIVER, S-9, AROCLOR 1254, Method: STANDARD PLATE

O=NN(CC(=O)O)CC1(O)OCC(O)C(O)C1O (stereo unspecified)
mutagenic call [1]: inactive; negative | mutagenic call (Test System: AMES SALMONELLA TYPHIMURIUM, Strain/Indicator: TA98, Metabolic Activation: RAT, LIVER, S-9, AROCLOR 1254, Method: PREINCUBATION): inactive; negative | mutagenic call (Test System: AMES SALMONELLA TYPHIMURIUM, Strain/Indicator: TA98, Metabolic Activation: RAT, LIVER, S-9, AROCLOR 1254, Method: STANDARD PLATE): inactive; negative | mutagenic call [2]: inactive; negative | mutagenic call (Test System: AMES SALMONELLA TYPHIMURIUM, Strain/Indicator: TA100, Metabolic Activation: RAT, LIVER, S-9, AROCLOR 1254, Method: PREINCUBATION): inactive; negative | mutagenic call [3]: inactive; negative | mutagenic call [4]: inactive; negative | mutagenic call (Test System: AMES SALMONELLA TYPHIMURIUM, Strain/Indicator: TA1535, Metabolic Activation: RAT, LIVER, S-9, AROCLOR 1254, Method: STANDARD PLATE): inactive; negative | mutagenic call [5]: inactive; negative | mutagenic call [6]: inactive; negative | mutagenic call [7]: inactive; negative | mutagenic call [8]: inactive; negative

COc1cccc2c1C(=O)c1c(O)c3c(c(O)c1C2=O)CC(O)(C(C)=O)CC3OC1CC(N2CCOCC2C#N)C(O)C(C)O1 (stereo unspecified)
mutagenic call (Test System: AMES SALMONELLA TYPHIMURIUM, Strain/Indicator: TA98, Metabolic Activation: NONE): inactive; negative | mutagenic call (Test System: AMES SALMONELLA TYPHIMURIUM, Strain/Indicator: TA98, Metabolic Activation: RAT, LIVER, S-9, AROCLOR 1254): active; positive | mutagenic call (Test System: CHINESE HAMSTER V-79, Strain/Indicator: V-79/8-AZAGUANINE, Metabolic Activation: NONE): active; positive | mutagenic call (Test System: CHINESE HAMSTER V-79, Strain/Indicator: V-79/8-AZAGUANINE, Metabolic Activation: RAT, HEPATOCYTES): inactive; negative | mutagenic call (Test System: UDS RAT HEPATOCYTES, Strain/Indicator: THY INCORP, Metabolic Activation: NONE, Method: AUTOMATIC COLONY COUNTER): active; positive

Cc1ncc2c(n1)CCC2
mutagenic call [1]: inactive; negative | mutagenic call (Test System: AMES SALMONELLA TYPHIMURIUM, Strain/Indicator: TA98, Metabolic Activation: RAT, LIVER, S-9, Method: STANDARD PLATE): inactive; negative | mutagenic call [2]: inactive; negative | mutagenic call (Test System: AMES SALMONELLA TYPHIMURIUM, Strain/Indicator: TA100, Metabolic Activation: RAT, LIVER, S-9, Method: STANDARD PLATE): inactive; negative | mutagenic call [4]: inactive; negative | mutagenic call (Test System: AMES SALMONELLA TYPHIMURIUM, Strain/Indicator: TA1535, Metabolic Activation: RAT, LIVER, S-9, Method: STANDARD PLATE): inactive; negative | mutagenic call [5]: inactive; negative | mutagenic call (Test System: AMES SALMONELLA TYPHIMURIUM, Strain/Indicator: TA1537, Metabolic Activation: RAT, LIVER, S-9, Method: STANDARD PLATE): inactive; negative | mutagenic call [7]: inactive; negative | mutagenic call (Test System: AMES SALMONELLA TYPHIMURIUM, Strain/Indicator: TA1538, Metabolic Activation: RAT, LIVER, S-9, Method: STANDARD PLATE): inactive; negative

ClCC1(CCl)[C@H]2CC(Cl)(Cl)[C@]1(CCl)[C@@H](Cl)[C@@H]2Cl
mutagenic call (Test System: AMES SALMONELLA TYPHIMURIUM, Strain/Indicator: TA100, Metabolic Activation: NONE, Method: PREINCUBATION): inactive; negative

O[C@H]1C=Cc2c(ccc3cc4c(ccc5ccccc54)cc23)[C@@H]1O
mutagenic call [3]: active; positive

Nc1c2ccccc2nc2ccc([N+](=O)[O-])cc12
mutagenic call (Test System: AMES SALMONELLA TYPHIMURIUM, Strain/Indicator: TA1537, Metabolic Activation: NONE): active; positive | mutagenic call (Test System: AMES SALMONELLA TYPHIMURIUM, Strain/Indicator: TA1537, Metabolic Activation: NONE, Method: PREINCUBATION): active; positive

Nc1ccc2ccc3cccc4ccc1c2c34
mutagenic call (End Point: IN VITRO CHROMOSOMAL ABERRATIONS, Test System: CHINESE HAMSTER LUNG (CHL) CELLS, Metabolic Activation: NONE): inactive; negative | mutagenic call (Test System: AMES SALMONELLA TYPHIMURIUM, Strain/Indicator: TA98(1,8-DNP6), Metabolic Activation: NONE, Method: STANDARD PLATE): active; positive | mutagenic call (Test System: AMES SALMONELLA TYPHIMURIUM, Strain/Indicator: TA98(1,8-DNP6), Metabolic Activation: RAT, LIVER, S-9, AROCLOR 1254, Method: STANDARD PLATE): active; positive | mutagenic call (Test System: AMES SALMONELLA TYPHIMURIUM, Strain/Indicator: TA98(NR), Metabolic Activation: NONE, Method: STANDARD PLATE): active; positive | mutagenic call (Test System: AMES SALMONELLA TYPHIMURIUM, Strain/Indicator: TA98(NR), Metabolic Activation: RAT, LIVER, S-9, AROCLOR 1254, Method: STANDARD PLATE): active; positive | mutagenic call [1]: active; positive | mutagenic call (Test System: AMES SALMONELLA TYPHIMURIUM, Strain/Indicator: TA98, Metabolic Activation: RAT, LIVER, S-9, AROCLOR 1254 (2 OR 4%), Method: STANDARD PLATE): active; positive | mutagenic call [2]: inactive; negative | mutagenic call (Test System: AMES SALMONELLA TYPHIMURIUM, Strain/Indicator: TA100, Metabolic Activation: RAT, LIVER, S-9, AROCLOR 1254 (4%), Method: STANDARD PLATE): inactive; negative | mutagenic call [3]: active; positive | mutagenic call (Test System: AMES SALMONELLA TYPHIMURIUM, Strain/Indicator: TA1535, Metabolic Activation: RAT, LIVER, S-9, AROCLOR 1254 (4%), Method: STANDARD PLATE): inactive; negative | mutagenic call (Test System: AMES SALMONELLA TYPHIMURIUM, Strain/Indicator: TA1537, Metabolic Activation: RAT, LIVER, S-9, AROCLOR 1254 (4%), Method: STANDARD PLATE): inactive; negative | mutagenic call [6]: active; positive | mutagenic call [7]: inactive; negative | mutagenic call [8]: active; positive
